Values after ≈ are worked out from the molar mass of the structure shown. Values joined by “and” are separate entries in the source; they are usually repeats but may differ in a detail not shown here. Identical values can stand only once. Like-named read-outs stand apart in the source and are kept apart here.
How the values were obtained:
Format in all cases: cell-based
[1] = test system: Enterococcus faecium vanA (strain E1654); assay: MIC (microdilution) against E. faecium; conditions: Enterococcus faecium, read-out: MIC E. faecium
Procedure: (§1) Staphylococcus aureus str. Newman, Enterococcus faecalis vanA (strain E0155), Enterococcus faecium vanA (strain E1654), Escherichia coli ATCC 25922, Escherichia coli D21f2 with a truncated LPS barrier, Escherichia coli JW5503 (ΔtolC) ([49]), Pseudomonas aeruginosa ATCC 27853, and Pasteurella haemolytica ATCC 29701 were grown in Mueller-Hinton Broth (MHB) (Oxoid, Basingstoke, UK) and incubated at 37°C.
(§2) The minimal inhibitory concentration was determined using the microdilution method following the guidelines of the European Committee on Antimicrobial Susceptibility Testing ([50]). Briefly, a series of twofold dilutions in MHB of each compound were made in a 96-well plate, with final concentrations ranging from 50 to 0.39 µg/mL in 100 µL final volume per well. A hundred microliters of 1:100 dilution of an overnight culture of the correspondent bacteria in MHB was added to each well. Plates were incubated for 18 hours at 37°C. MIC was recorded as the lowest concentration where no growth was detected as measured by optical density at 600 nm (OD600) using Spectramax M5 (Molecular Devices LLC, San Jose, CA, USA). […] Wells containing bacteria with or without 1% DMSO and medium alone were included as controls in every plate.

S. aureus str. Newman = assay: Membrane permeability using SYTOX-Green, flow cytometry; conditions: for % FITC stained bacteria 0.5 xMIC: 0.5× MIC; for % FITC stained bacteria 0.5 xMIC / % FITC stained bacteria 1 xMIC / % FITC stained bacteria 2 xMIC: 5 min exposure; for % FITC stained bacteria 1 xMIC: 1× MIC; for % FITC stained bacteria 2 xMIC: 2× MIC; for Membrane damage: if considered to cause membrane damage to S. aureus
Procedure: S. aureus str. Newman was grown to exponential phase (OD600 = 0.4) in MHB media. […] Nisin (Sigma-Aldrich) and novobiocin (Sigma-Aldrich) were used as positive and negative controls for membrane permeabilization, and stained and unstained untreated controls were also included in each assay. After exposure, samples were centrifuged at 4,000 r.p.m. for 5 min and resuspended in PBS. Bacteria were dyed by adding the fluorescent nuclear stain SYTOX Green (Molecular Probes, Invitrogen) to a final concentration of 0.5 µM and incubating for 5 min in the dark. Samples were centrifuged again and resuspended with PBS to remove unbound stain. Three hundred microliters of each sample was transferred to a clean well in a 96-well clear-bottom plate (Corning Incorporated). Fluorescence was measured in CytoFLEX flow cytometer (Beckman Coulter, Brea, CA, USA) using the green (FITC) channel with the excitation wavelength at 488 nm. Overlay histograms were created with CytExpert Software (Beckman Coulter, Brea, CA, USA).

[2] = test system: Enterococcus faecalis vanA (strain E0155); assay: MIC (microdilution) against E. faecalis; conditions: Enterococcus faecalis, read-out: MIC E. faecalis
Procedure: as §1, §2

HEK293 cells [3] = assay: in vitro; conditions: for Selectivity Index: LC50/MIC (HEK293 / S. aureus)
Procedure: (§3) HEK293 cells and the human hepatocellular carcinoma cells (HepG2) were routinely cultured in 75-cm^2 culture flasks (Corning Incorporated) on high-glucose Dulbecco’s modified Eagle medium (DMEM) containing glutaMax and phenol red (Gibco) supplemented with 1% penicillin/streptomycin (Gibco) and 10% fetal bovine serum (FBS) (Gibco). Cells were maintained at 37°C and 5% CO2.
(§4) Cytotoxicity assays with HEK293 and HepG2 cells were performed in 96-well plates seeded with 5 × 10^4 cells/well and incubated for 24 hours to reach 80%–90% confluency. Exterior wells were filled with only medium to prevent evaporation. Culture medium was removed from the cells, and 100 µL of exposure medium [high-glucose DMEM without phenol red (Gibco)] was added to avoid a potential interaction between FBS components or antibiotics and tested compounds. A twofold dilution series of compounds in exposure medium (range 100–3.2 μg/mL) was made in a separate 96-well plate, and 100 µL of each of these dilutions was added to the assay plates for 24 hours at 37°C in the presence of 5% CO2. Control wells contained cells with DMEM, DMEM + 1% DMSO (vehicle control), or DMEM + 20% DMSO. Wells without cells were also included as negative control. After exposure, the medium was replaced with 100 µL 10% Alamar Blue (Invitrogen) in exposure medium. After 45 min incubation at 37°C and 5% CO2, fluorescence was measured on a Spectramax M5 plate reader at λex = 541 nm, λem = 590 nm. Cell viability compared with the vehicle control was calculated, and inhibition curves for each compound were fitted (non-linear curve fit, four variables, bottom constrained = 0) in Prism 9 (GraphPad Software, San Diego, USA).

in vitro = conditions: human
Procedure: as §3, §4

[4] = test system: Escherichia coli JW5503 (ΔtolC); assay: MIC (microdilution) against E. coli JW5503; conditions: Escherichia coli, read-out: MIC E. coli JW5503
Source text: (§5) We also tested the inhibitory activity of compounds in two different E. coli mutants: (i) E. coli JW5503 that lacks TolC efflux pumps and (ii) E. coli D21f2 that has a defective LPS inner core increasing permeability of the outer membrane. E. coli D21f2 has a slightly higher susceptibility to DPP compounds than E. coli ATCC25922.
as §1, §2

[5] = test system: Escherichia coli ATCC 25922; assay: MIC (microdilution) against E. coli; conditions: Escherichia coli, ATCC25922; Table ST1; read-out: MIC E. coli
Procedure: as §1, §2

[6] = test system: Pseudomonas aeruginosa ATCC 27853; assay: MIC (microdilution) against P. aeruginosa; conditions: Pseudomonas aeruginosa, ATCC27853; Table ST1; read-out: MIC P. aeruginosa
Procedure: as §1, §2

[7] = test system: Pasteurella haemolytica ATCC 29701; assay: MIC (microdilution) against P. haemolytica; conditions: Mannheimia haemolytica
Procedure: as §1, §2

HEK293 cells [8] = assay: Cell imaging of HEK293 cells
Procedure: HEK293 cells were plated in 24-well plates on exposure medium for 24 hours (500,000 cells/well). Cells were exposed to a subset of compounds at a lethal concentration of 20% (LC20). After 24 hours exposure, cells were fixed with 2% glutaraldehyde for 15 min, washed with water, permeabilized with 0.5% Triton-X, washed twice with water, and stained with Toluidine blue 0.3%. For 100× amplification, cells were harvested by pipetting up and down in 250 µL of exposure medium. Cells from three wells treated with the same compound were pooled and centrifuged for 5 min at 1,500 r.p.m. The cell pellet was fixed in 0.1 M cacodylate buffer containing 2% glutaraldehyde (vol/vol) (pH 7.4). After 1 hour on ice, the pellet was washed with 0.1 M cacodylate buffer and fixed in 0.1 M cacodylate buffer containing 1% osmium tetroxide (wt/vol). After a further hour on ice, the cell pellet was embedded in hard Epon and 1-µm slides were cut and stained with 1% toluidine blue and 1% borax (wt/vol). Cell abnormalities were assessed by microscopy using a Leica DM6B light microscope (Leica Microsystems B.V., Amsterdam, the Netherlands) at 100× magnification.

[9] = test system: Staphylococcus aureus str. Newman; assay: Minimal inhibitory concentration (microdilution) against S. aureus; conditions: for MIC S. aureus: Table ST3
Procedure: as §1, §2

sheep red blood cells = assay: Haemolysis assay; conditions: for Haemolysis: if considered to cause haemolysis to red blood cells
Procedure: The hemolysis assay was adapted from the study by Evans et al. ([65]). Briefly, sheep RBC 10% washed pooled cells in PBS (Rockland Immunochemicals, Limerick, PA, USA) were diluted 1:5 to give a final concentration of 2% RBCs in PBS. […] A non-treated control, 1% DMSO (vehicle control), and complete cell lysis control (Triton-X 2%) were included in each assay. After exposure samples were centrifuged at 4°C at 1,000 g for 15 min and 100 µL of supernatant transferred to a clean well in a 96-well, clear, flat-bottom plate (Corning Incorporated). Released hemoglobin was measured by absorption at 540 nm using a Spectramax M5 plate reader. The experiments were performed in quadruplicate. The percentage of hemolysis was calculated as follows:
Hemolysis=A540nm,testcondition−A540nm,DMSOcontrol/A540nm,TritonXControl−A540nm,DMSOcontrol

[10] = test system: Escherichia coli D21f2 with a truncated LPS barrier; assay: MIC (microdilution) against E. coli D21f2; conditions: read-out: MIC E coli D21f2
Source text: as §5, §1, §2

[11] = ATCC29701, read-out: MIC P. haemolytica, Table ST1
[12] = Staphylococcus aureus, NEWMAN, Fig 2
[13] = Staphylococcus aureus, NEWMAN, Fig 2, value in parentheses
[14] = Table ST3, value in parentheses

Row | Compound | MIC [1] | % FITC stained bacteria 0.5 xMIC (S. aureus str. Newman) | % FITC stained bacteria 1 xMIC (S. aureus str. Newman) | % FITC stained bacteria 2 xMIC (S. aureus str. Newman) | Membrane damage (S. aureus str. Newman) | MIC [2] | Selectivity Index (HEK293 cells [3]) | CC50 at 24 h (in vitro) | MIC [4] | MIC [5] | MIC [6] | MIC [7, 11] | MIC [9, 12] | MIC [9, 13] | MIC S. aureus [9] | MIC [9, 14] | MIC [10] | Haemolysis (sheep red blood cells) | other results
1 | CCOc1ccc(-c2[nH]nc(C(F)(F)F)c2-c2ccc(OC)cc2)c(O)c1 [DPP-14] | 12.5 µg/mL (≈ 33 µM) | 28.78% | 44.58% | 56.62% | YES | 12.5 µg/mL (≈ 33 µM) | 1.05 | 6.57 µg/mL and 17.3 µM | 3.13 µg/mL (≈ 8.27 µM) | > 250 µg/mL | > 250 µg/mL | > 250 µg/mL | 6.25 µg/mL | 16.4 µM | 6.25 µg/mL (≈ 16.5 µM) | 16.45 µM |  |  | LC20 (HEK293 cells [3]; human, 24 h): 3 µg/mL (≈ 7.93 µM); cells in G2/M phase (HEK293 cells [8]; HEK293, LC20, 24 hours exposure, DMSO control 2.68% ± 1.31%): 12.24% ± 1.23%; Morphological changes of HEK293 cells (HEK293 cells [8]; LC20, 24 hours exposure, 40× amplification): no morphological changes; RBC hemolysis (sheep red blood cells): not hemolytic
2 | Oc1cc(OCc2ccccc2)ccc1-c1[nH]nc(C(F)(F)F)c1-c1ccc(Cl)cc1 [DPP-8] | 3.12 µg/mL (≈ 7.01 µM) | 12.26% | 32.15% | 36.10% | YES | 1.56 µg/mL (≈ 3.51 µM) | 9.14 | 14.2 µg/mL and 32 µM | 12.5 µg/mL (≈ 28.1 µM) | > 250 µg/mL | > 250 µg/mL | 250 µg/mL (≈ 562 µM) | 1.56 µg/mL | 3.51 µM | 1.56 µg/mL (≈ 3.51 µM) | 3.51 µM | 25 µg/mL (≈ 56.2 µM) | YES | 
3 | CCOc1ccc(-c2[nH]nc(C(F)(F)F)c2-c2ccccc2)c(O)c1 [DPP-3] | > 250 µg/mL | 35.78% | 49.41% | 58.28% | YES | > 250 µg/mL | 4.1 | 25.6 µg/mL and 76.5 µM | 1.56 µg/mL (≈ 4.48 µM) | > 250 µg/mL | > 250 µg/mL | 50 µg/mL (≈ 144 µM) | 6.25 µg/mL | 17.9 µM | 6.25 µg/mL (≈ 17.9 µM) | 17.86 µM |  | YES | 
4 | FC(F)(F)c1n[nH]c(-c2ccccc2)c1-c1ccc(Cl)cc1 [DPP-21] | 12.5 µg/mL (≈ 38.7 µM) | 31.51% | 35.84% | 51.03% | YES | 12.5 µg/mL (≈ 38.7 µM) | 4.56 |  | 1.56 µg/mL (≈ 4.83 µM) | > 250 µg/mL | > 250 µg/mL |  | 1.56 µg/mL | 4.8 µM | 1.56 µg/mL (≈ 4.83 µM) | 4.8 µM | > 250 µg/mL | YES | MIC ([7]; ATCC29701, Table ST1, read-out: MIC P. haemolytica): 12.5 µg/mL (≈ 38.7 µM)
